Results reported in ChEMBL document CHEMBL1240378, “Pharmacokinetic-pharmacodynamic modeling of alpha interferon response induced by a Toll-like 7 receptor agonist in mice” (Antimicrob Agents Chemother, 2010).

Assays:
Mus musculus [1] = assay: Intercompartmental clearance in CD1 mouse at 0.1 to 10 mg/kg, po; format: ADME, organism-based; parameters: dose 0.1-10 mg/kg, route oral; conditions: in vivo
Mus musculus [2] = assay: Absorption rate constant for depot compartment in CD1 mouse at 0.1 to 10 mg/kg, po; format: ADME, organism-based; parameters: dose 0.1-10 mg/kg, route oral; conditions: in vivo
Mus musculus [3] = assay: Induction of IFNalpha production in CD1 mouse assessed as concentration of compound required for half-maximal synthesis of INF-alpha at 0.1 to 10 mg/kg, po; format: functional; conditions: dose mg/kg 0.1-10
[4] = Oral bioavailability in rat at 3 mg/kg; format: ADME, organism-based; conditions: in vivo
[5] = Clearance in CD1 mouse at 0.1 to 10 mg/kg, po; format: ADME, organism-based; parameters: dose 0.1-10 mg/kg, route oral; conditions: in vivo
Hepatitis C virus = assay: Antiviral activity against HCV infected in human Huh7 cells with persistent PFK1389-Luc-Ubi-Neo-NS3-3'/ET replicon after 48 hrs by luminescence based assay; format: functional, organism-based, Hepacivirus hominis; conditions: Huh-7, 48 h
Mus musculus [6] = assay: Apparent volume of distribution in CD1 mouse at 0.1 to 10 mg/kg, po; format: ADME, organism-based; parameters: dose 0.1-10 mg/kg, route oral; conditions: in vivo
Mus musculus [7] = assay: Induction of IFNalpha production in CD1 mouse assessed as elimination rate constant for interferon alpha at 0.1 to 10 mg/kg, po; format: functional; conditions: dose mg/kg 0.1-10
Mus musculus [8] = assay: Induction of IFNalpha production in CD1 mouse assessed as maximum rate of interferon alpha synthesis at 0.1 to 10 mg/kg, po; format: functional; conditions: dose mg/kg 0.1-10
Mus musculus [9] = assay: Volume of distribution in central compartment in CD1 mouse at 0.1 to 10 mg/kg, po; format: ADME, organism-based; parameters: dose 0.1-10 mg/kg, route oral; conditions: in vivo

CL (Mus musculus [1]): 46.3 mL/min/kg
Ka (Mus musculus [2]): 35 h⁻¹
bioavailability [4]: 40%
CL/F [5]: 57.5 mL/min/kg
EC50 (Hepatitis C virus): 30 nM
Vz (Mus musculus [6]): 40 L/kg
Vd (Mus musculus [9]): 4.31 L/kg
Compound: COCCOc1nc(N)c2[nH]c(=O)n(Cc3ccccc3)c2n1
SC50 (Mus musculus [3]): 135 ng/mL
Activity (Mus musculus [7]): 0.958 h⁻¹
Smax (Mus musculus [8]): 294 IU/ml/hr
